Tested on: TRAMP+ prostate tumors
Experiment: TRAMP+ prostate tumor model (IHC, scRNAseq)
Assay type: in vivo, mouse
Method: For mouse xenografts using PC3 PCa cells and sgC or sgAP-1 WPMY-1 stromal cells. 7 weeks old NSG mice were surgical castrated and let androgen levels drop for 10 days. Cells were trypsinized washed two times in PBS and resuspend in DMEN. 1×10^6 PC3 and 1×10^6 sgC or sgAP1-A WPMY-1 for each mouse were resuspended in 100 μl DMEM: Matrigel (1:1) and injected subcutaneously into both flanks of immunocompromised NSG mice (PC3+sgC WPMY-1 n=4; PC3+sgAP-1 WPMY-1 n=4). Tumors were allowed to grow for 1 month. Mice were euthanized and tumors were collected and analyzed histologically. For Olaparib treatment in mouse xenografts. PC3 PCa cells and WPMY-1 stromal cells were trypsinized washed two times in PBS and resuspend in DMEN. 1×10^6 PC3 and 1×10^6 WPMY-1 for each mouse were resuspended in 100 μl DMEM: Matrigel (1:1) and injected subcutaneously into both flanks of immunocompromised NSG mice. Tumors were allowed to grow for 14 days, and mouse were randomly divided to receive vehicle, n=10, Olaparib (40 mg/kg, 2 days each week, i.p.), n=10 or Olaparib (40 mg/kg, 2 days each week, i.p.)+_PEGPH20 (0.0375 mg/Kg, 2 days each week, retroorbital injection) n=10. Tumors were measured twice a week. Mice were euthanized 14 days after the initiation of the treatment and tumors were collected and analyzed histologically. For Olaparib treatment in mice, 13 weeks-old male TRAMP^+, n=18, were randomly distributed to receive vehicle, n=9, or Olaparib (40 mg/kg/, 5 days each week, i.p.), n=9. Mice were euthanized 1 month after the initiation of the treatment. Prostate and other organs were collected and analyzed histologically.
Tissues from indicated mice were isolated, fixed in zinc buffered formalin overnight at 4° C., dehydrated, and embedded in paraffin. Sections (5 μm) were stained with hematoxylin and eosin (H&E). For immunohistochemistry, sections were deparaffinized, rehydrated, and then treated for antigen retrieval. After blocking in Protein Block Serum-Free solutions (DAKO), tissues were incubated with primary antibody overnight at 4° C. followed by incubation with biotinylated secondary antibody. Endogenous peroxidase was quenched in 3% H2O2 in water for 10 minutes at room temperature. Antibodies were visualized with avidin-biotin complex (Vectastain Elite; Vector Laboratories) using diaminobenzidine as the chromogen. Stained sections were analyzed with a Zeiss light microscope supplemented with Zen 3.3 Bule edition software.
Prostate lobes dissected and washed with cold PBS. Prostate tissue was gently minced with scissors and digested in Advance DMEN/F12 media (Gibco, Thermo Fisher) with 5 mg/ml Collagenase type II (Sigma) supplemented with Y27632 (Tocris) for 1 hour at 37° C. Cells were passed through a 70 μm strainer and centrifuge 5 minutes, 1000 rpm at 4° C. After that, cells were incubated with TrypLE Express (Gibco, Thermo Fisher) supplemented with Y27632 for 20 minutes in agitation at 37° C. to achieve a single cell suspension. TrypLE Express was quenched and washed with Advance DMEN/F12 media and then cells were centrifuged for 5 minutes, 1000 rpm at 4° C. Dead cells were removed by Annexin V ([…] technologies). scRNA-seq libraries were generated using the Chromium Single Cell 30 Reagent Kit v2 (10× Genomics). Cells were loaded onto the 10×Chromium Single Cell Platform (10× Genomics) at a concentration of 2,000 cells per μl (Single Cell 3′ library and Gel Bead Kit v.2) as described in the manufacturer's protocol (10× User Guide, Revision B). On average, approximately 8,000 cells were loaded. Generation of gel beads in emulsion (GEMs), barcoding, GEM-RT clean-up, complementary DNA amplification and library construction were all performed as per the manufacturer's protocol. Individual sample quality was checked using a Bioanalyzer Tapestation (Agilent). Qubit was used for library quantification before pooling. The final library pool was sequenced on an Illumina NovaSeq6000 instrument using a S1 flow cell. […]

## O=C(c1cc(Cc2n[nH]c(=O)c3ccccc23)ccc1F)N1CCN(C(=O)C2CC2)CC1 [Olaparib]
Olaparib 40 mg/Kg, 5 days a week, 4 weeks
  desmoplastic response in the prostate (IHC HA, aSMA): induced a strong desmoplastic response in the prostate
Olaparib 4 weeks
  AR, EMT and TGFβ signaling signatures in tumor epithelium: increased AR, EMT and TGFβ signaling
  Has1, Spink1 and Tgfb2 transcripts in fibroblast population (scRNAseq): among the most upregulated transcripts
  neuroendocrine cluster 2 (NE1) of tumor epithelium (scRNAseq): completely abolished the neuroendocrine cluster 2
  pSMAD2 staining in prostates (IHC): increased pSMAD2 staining
  stromal and immune cell populations (scRNAseq): expansion of the stromal and immune populations
In vivo
  SPINK1 levels in tumor stroma (IHC): highly upregulated

Source: patent US20250073234A1, “COMBINATION THERAPIES INCLUDING PARP1 INHIBITORS” (Cornell University, priority 2022, published 2025)
